From patent EP1090020B1, “2-(PURIN-9-YL)-TETRAHYDROFURAN-3,4-DIOL DERIVATIVES” (GLAXO GROUP LIMITED, priority 1998, dated 1999)

Tests used:
Assay type in all cases: cell-based
[1] = biological target: human adenosine receptor (adenosine 2a) (Homo sapiens, UniProt P29274); assay: Agonist activity against adenosine 2a receptor subtype (CHO cells, cAMP response element/SPAP reporter); conditions: transfected CHO cells; effect on basal levels of cAMP reflected by SPAP; ratio to NECA
Procedure: (§1) Compounds of the invention were tested for in vitro and in vivo biological activity in accordance with the following screens: • (1) Agonist activity against adenosine 2a, adenosine 1 and adenosine 3 receptor subtypes. Agonist selectivity of compounds against other human adenosine receptors was determined using Chinese hamster ovary (CHO) cells transfected with the gene for the relevant human adenosine receptor following a method based on that of Castanon and Spevak, 1994 . The CHO cells were also transfected with cyclic AMP response elements promoting the gene for secreted placental alkaline phosphatase (SPAP) (Wood, 1995). The effect of test compounds was determined by their effects on basal levels of CAMP (A2a) or on forskolin-enhanced cAMP (A1 and A3) as reflected by changes in levels of SPAP. EC50 values for compounds were then determined as a ratio to that of the non-selective agonist N-ethyl carboxamide adenosine (NECA).

[2] = biological target: T1, human adenosine receptor (adenosine 3) (Homo sapiens, UniProt P0DMS8); assay: Agonist activity against adenosine 3 receptor subtype (CHO cells, cAMP response element/SPAP reporter); conditions: transfected CHO cells; effect on forskolin-enhanced cAMP reflected by SPAP; ratio to NECA
T1 sequence (P0DMS8 1-318): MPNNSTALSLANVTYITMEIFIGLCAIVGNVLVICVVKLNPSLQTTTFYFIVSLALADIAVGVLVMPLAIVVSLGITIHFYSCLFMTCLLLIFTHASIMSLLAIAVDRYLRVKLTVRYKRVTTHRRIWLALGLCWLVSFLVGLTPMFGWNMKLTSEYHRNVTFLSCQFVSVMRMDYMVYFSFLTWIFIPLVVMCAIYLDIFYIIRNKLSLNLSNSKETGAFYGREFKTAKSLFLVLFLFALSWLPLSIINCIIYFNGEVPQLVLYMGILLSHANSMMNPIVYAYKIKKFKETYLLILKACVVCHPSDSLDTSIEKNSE
Procedure: as §1

[3] = biological target: T2, human adenosine receptor (adenosine 1) (Homo sapiens, UniProt P30542); assay: Agonist activity against adenosine 1 receptor subtype (CHO cells, cAMP response element/SPAP reporter); conditions: transfected CHO cells; effect on forskolin-enhanced cAMP reflected by SPAP; ratio to NECA
T2 sequence (P30542 1-326): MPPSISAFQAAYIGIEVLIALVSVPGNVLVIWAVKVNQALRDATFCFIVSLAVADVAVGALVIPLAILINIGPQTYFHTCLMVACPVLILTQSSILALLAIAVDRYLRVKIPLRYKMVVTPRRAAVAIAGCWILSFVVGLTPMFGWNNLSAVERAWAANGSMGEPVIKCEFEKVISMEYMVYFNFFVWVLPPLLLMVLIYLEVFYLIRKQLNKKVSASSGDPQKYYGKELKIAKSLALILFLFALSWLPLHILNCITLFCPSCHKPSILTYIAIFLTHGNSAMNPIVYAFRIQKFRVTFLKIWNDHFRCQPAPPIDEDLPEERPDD
Procedure: as §1

Sequence of human adenosine receptor (adenosine 2a) (P29274 whole entry): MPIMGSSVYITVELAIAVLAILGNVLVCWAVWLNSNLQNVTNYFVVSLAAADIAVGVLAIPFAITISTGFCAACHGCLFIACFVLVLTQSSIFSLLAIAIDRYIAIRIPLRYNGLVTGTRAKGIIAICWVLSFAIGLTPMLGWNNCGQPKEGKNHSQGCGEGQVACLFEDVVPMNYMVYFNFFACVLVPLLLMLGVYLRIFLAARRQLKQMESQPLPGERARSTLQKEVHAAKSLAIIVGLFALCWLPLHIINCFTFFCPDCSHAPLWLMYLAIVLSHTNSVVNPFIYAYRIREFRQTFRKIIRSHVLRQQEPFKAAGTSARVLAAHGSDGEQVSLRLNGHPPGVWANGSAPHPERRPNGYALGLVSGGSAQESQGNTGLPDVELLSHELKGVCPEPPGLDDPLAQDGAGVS

Structure (SMILES)	A2a; EC50 values as a ratio of that of NECA [1]	A3; EC50 values as a ratio of that of NECA [2]	A1; EC50 values as a ratio of that of NECA [3]
N[C@H]1CC[C@H](Nc2nc(NCC(c3ccccc3)c3ccccc3)c3ncn([C@@H]4O[C@H](c5nnc[nH]5)[C@@H](O)[C@H]4O)c3n2)CC1.O=CO [Example 1, (2R,3R,4S,5R)-2-[2-(trans-4-Amino-cyclohexylamino)-6-(2,2-diphenyl-ethylamino)-purin-9-yl]-5-(4H-[1,2,4]triazol-3-yl)-tetrahydro-furan-3,4-diol formate]	11.37	> 353	1098
Cn1cnc(CCNc2nc(NCC(c3ccccc3)c3ccccc3)c3ncn([C@@H]4O[C@H](c5nnc[nH]5)[C@@H](O)[C@H]4O)c3n2)c1.O=CO [Example 2, (2R,3R,4S,5R)-2-{6-(2,2-Diphenyl-ethylamino)-2-[2-(1-methyl-1H-imidazol-4-yl)-ethylamino]-purin-9-yl}-5-(4H-[1,2,4]triazol-3-yl)-tetrahydro-furan-3,4-diol formate]	1.08	> 430	1003.4
O=CO.O[C@@H]1[C@H](O)[C@@H](c2nnc[nH]2)O[C@H]1n1cnc2c(NCC(c3ccccc3)c3ccccc3)nc(N[C@@H]3CCNC3)nc21 [Example 3, (2R,3R,4S,5R)-2-[6-(2,2-Diphenyl-ethylamino)-2-(pyrrolidin-3R-ylamino)-purin-9-yl]-5-(4H-[1,2,4]triazol-3-yl)-tetrahydro-furan-3,4-diol formate]	10.49	> 306	586.92
CC(C)[C@@H](CO)Nc1nc(NCC(c2ccccc2)c2ccccc2)c2ncn([C@@H]3O[C@H](c4nnc[nH]4)[C@@H](O)[C@H]3O)c2n1.O=CO [Example 4, (2R,3R,4S,5R)-2-[6-(2,2-Diphenyl-ethylamino)-2-(1S-hydroxymethyl-2-methyl-propylamino)-purin-9-yl]-5-(4H-[1,2,4]triazol-3-yl)-tetrahydro-furan-3,4-diol formate]	3.79	> 306	670.92
O=CO.O[C@@H]1[C@H](O)[C@@H](c2nnc[nH]2)O[C@H]1n1cnc2c(NCC(c3ccccc3)c3ccccc3)nc(NCCc3ccccn3)nc21 [Example 5, (2R,3R,4S,5R)-2-[6-(2,2-Diphenyl-ethylamino)-2-(2-pyridin-2-yl-ethylamino)-purin-9-yl]-5-(4H-[1,2,4]triazol-3-yl)-tetrahydro-furan-3,4-diol formate]	19.3	> 397	3329
O=CO.O[C@@H]1[C@H](O)[C@@H](c2nnc[nH]2)O[C@H]1n1cnc2c(NCC(c3ccccc3)c3ccccc3)nc(NC3CCCC3)nc21 [Example 6, (2R,3R,4S,5R)-2-[2-Cyclopentylamino-6-(2,2-diphenyl-ethylamino)-purin-9-yl]-5-(4H-[1,2,4]triazol-3-yl)-tetrahydro-furan-3,4-diol formate]	16.96	> 305	1627
N=C(N)NCCNc1nc(NCC(c2ccccc2)c2ccccc2)c2ncn([C@@H]3O[C@H](c4nnc[nH]4)[C@@H](O)[C@H]3O)c2n1.O=CO [Example 7, N-{2-[9-[3R,4S-Dihydroxy-5R-(4H-[1,2,4]triazol-3-yl)-tetrahydro-furan-2R-yl]-6-(2,2-diphenyl-ethylamino)-9H-purin-2-ylamino]-ethyl}-guanidine formate]	19.01	> 368	2577
O=CO.OC[C@H](Cc1ccccc1)Nc1nc(NCC(c2ccccc2)c2ccccc2)c2ncn([C@@H]3O[C@H](c4nnc[nH]4)[C@@H](O)[C@H]3O)c2n1 [Example 8, (2R,3R,4S,5R)-2-[6-(2,2-Diphenyl-ethylamino)-2-(1S-hydroxymethyl-2-phenyl-ethylamino)-purin-9-yl]-5-(4H-[1,2,4]triazol-3-yl)-tetrahydro-furan-3,4-diol formate]	26.74	> 326	280.97
O=CO.O[C@@H]1[C@H](O)[C@@H](c2nnc[nH]2)O[C@H]1n1cnc2c(NCC(c3ccccc3)c3ccccc3)nc(NCCN3CCCCC3)nc21 [Example 9, (2R,3R,4S,5R)-2-[6-(2,2-Diphenyl-ethylamino)-2-(2-piperidin-1-yl-ethylamino)-purin-9-yl]-5-(4H-[1,2,4]triazol-3-yl)-tetrahydro-furan-3,4-diol formate]	8.13	> 472	969.8
